Assay [1] has as its target recombinant human S1P1 receptor (Homo sapiens, UniProt P21453). The assay can be described thus: GTPγS assay to determine EC50 values. It is filed as biochemical. Conditions: 35S-GTPγS binding, membrane preparations of CHO cells expressing recombinant human S1P1 receptor. The procedure: GTPγS binding assays are performed in 96 well microtiter plates (Nunc, 442587) in a final volume of 200 μl, using membrane preparations of CHO cells expressing recombinant human S1P1 receptor. Assay conditions are 20 mM Hepes (Fluka, 54461), 100 mM NaCl (Fluka, 71378), 5 mM MgCl2 (Fluka, 63064), 0.1% BSA (Calbiochem, 126609), 1 μM GDP (Sigma, G-7127), 2.5% DMSO (Fluka, 41644), 50 pM ^35S-GTPγS (Amersham Biosciences, SJ1320). The pH is 7.4. Test compounds are dissolved and diluted in 100% DMSO and pre-incubated at room temperature for 30 min in 150 μl of the above assay buffer, in the absence of ^35S-GTPγS. After addition of 50 μl of ^35S-GTPγS, the assay is incubated for 1 h at rt. The assay is terminated by transfer of the reaction mixture to a Multiscreen plate (Millipore, MAHFC1H60) using a cell harvester from Packard Biosciences, and the plates are washed with ice-cold 10 mM Na2HPO4/NaH2PO4 (70%/30%), dried, sealed at the bottom and, after addition of 25 μl MicroScint20 (Packard Biosciences, order no. 6013621), sealed on the top. Membrane-bound ^35S-GTPγS is measured with a TopCount from Packard Biosciences.
EC50 is the concentration of agonist inducing 50% of the maximal specific ^35S-GTPγS binding. Specific binding is determined by subtracting non-specific binding from maximal binding. […]
The EC50 value was determined according to the method described above.
Background: Binding of GTPγS marks nucleotide exchange on a G protein.

Another assay relates to circulating lymphocytes. The assay can be described thus: Assessment of in vivo efficacy: circulating lymphocytes after oral administration. Details: species or system normotensive male Wistar rats. The settings on record: 6 h after oral administration of 10 mg/kg, male Wistar rats, compared to vehicle group; mean ± SEM. As to the method: The efficacy of the compounds of Formula (I) is assessed by measuring the circulating lymphocytes after oral administration of 3 to 30 mg/kg of a compound of Formula (I) to normotensive male Wistar rats. The animals are housed in climate-controlled conditions with a 12 h-light/dark cycle, and have free access to normal rat chow and drinking water. Blood is collected before and 3, 6 and 24 h after drug administration. Full blood is subjected to hematology using Advia Hematology system (Bayer Diagnostics, Zurich, Switzerland).
All data are presented as mean ±SEM. Statistical analyses are performed by analysis of variance (ANOVA) using Statistica (StatSoft) and the Student-Newman-Keuls procedure for multiple comparisons. The null hypothesis is rejected when p<0.05.

recombinant human S1P1 receptor, sequence (P21453 whole entry): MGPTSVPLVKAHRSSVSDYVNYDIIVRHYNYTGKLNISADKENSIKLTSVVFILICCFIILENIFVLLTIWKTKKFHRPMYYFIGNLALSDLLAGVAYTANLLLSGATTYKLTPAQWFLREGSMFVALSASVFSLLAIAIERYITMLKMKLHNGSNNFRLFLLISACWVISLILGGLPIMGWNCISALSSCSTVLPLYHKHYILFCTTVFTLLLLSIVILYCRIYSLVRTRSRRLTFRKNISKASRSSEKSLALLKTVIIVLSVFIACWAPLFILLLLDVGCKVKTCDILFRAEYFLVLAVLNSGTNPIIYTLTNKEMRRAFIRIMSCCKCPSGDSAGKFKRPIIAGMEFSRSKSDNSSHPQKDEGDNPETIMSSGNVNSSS

On to `CCc1cc(CCC(=O)c2sc(C(F)(F)F)c3c2CCC(C)(C)C3)cc(C)c1CCC(=O)O` [Example 4, 3-{4-[3-(5,5-Dimethyl-3-trifluoromethyl-4,5,6,7-tetrahydro-benzo[c]thiophen-1-yl)-3-oxo-propyl]-2-ethyl-6-methyl-phenyl}-propionic acid], for which the EC50 (commonly the concentration at which the effect is half-maximal) in assay [1] was 4 nM.

`CCc1sc(C(=O)CCc2cc(C)c(CCC(=O)O)c(C)c2)c2c1CC(C)(C)CC2` [Example 1, 3-{4-[3-(3-ethyl-5,5-dimethyl-4,5,6,7-tetrahydro-benzo[c]thiophen-1-yl)-3-oxo-propyl]-2,6-dimethyl-phenyl}-propionic acid]: the Lymphocyte counts in the assay on circulating lymphocytes is −61 ± 5%.

For the origin of these results see patent US7981924B2, “Thiophene derivatives” (Actelion Pharmaceuticals Ltd., priority 2005, dated 2011).
